# Test results reported in ChEMBL document CHEMBL1201862, “PubChem BioAssay data set” (2004).
#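 Values below derive from 48-hour exposures of cells grown in 96-well plates, with endpoints linearly interpolated between the two concentrations bracketing the appropriate inhibition level. The concentration for 50% growth inhibition is given as GI50.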 Active and inactive are the calls of the source. Rule as the data show it: active = GI50 up to about 1.1 µM and inactive = higher.
# What was measured:
# Experiment in all cases: growth of human tumour cells (NCI), 48 h
# ACHN = tested on: ACHN
# CAKI-1 = tested on: CAKI-1
# CCRF-CEM = tested on: CCRF-CEM
# EKVX = tested on: EKVX
# HCT-116 = tested on: HCT-116
# HT-29 = tested on: HT-29
# LOX IMVI = tested on: LOX IMVI
# NCI-H226 = tested on: NCI-H226
# NCI-H23 = tested on: NCI-H23
# NCI-H522 = tested on: NCI-H522
# RPMI-8226 = tested on: RPMI-8226
# SK-MEL-28 = tested on: SK-MEL-28
# SN12C = tested on: SN12C
# SW-620 = tested on: SW-620
# U-251 = tested on: U-251
# UACC-257 = tested on: UACC-257
# UO-31 = tested on: UO-31
# MCF7 = tested on: MCF7
# MDA-MB-231 = tested on: MDA-MB-231
# MDA-N = tested on: MDA-N
SMILES,GI50 (ACHN),GI50 (CAKI-1),GI50 (CCRF-CEM),GI50 (EKVX),GI50 (HCT-116),GI50 (HT-29),GI50 (LOX IMVI),GI50 (NCI-H226),GI50 (NCI-H23),GI50 (NCI-H522),GI50 (RPMI-8226),GI50 (SK-MEL-28),GI50 (SN12C),GI50 (SW-620),GI50 (U-251),GI50 (UACC-257),GI50 (UO-31),GI50 (MCF7),GI50 (MDA-MB-231),GI50 (MDA-N)
Cc1ccc2c(C)c3ccc4ccccc4c3c[n+]2c1.[O-][Cl+3]([O-])([O-])[O-],58.7 µM (inactive),23.9 µM (inactive),11.1 µM (inactive),13.7 µM (inactive),27.5 µM (inactive),32.4 µM (inactive),34.6 µM (inactive),5.81 µM (inactive),14.6 µM (inactive),11.2 µM (inactive),16.6 µM (inactive),15.3 µM (inactive),4.68 µM (inactive),10.1 µM (inactive),5.02 µM (inactive),12.4 µM (inactive),33.6 µM (inactive),,,
Cc1c2n(c(=O)[nH]c1=O)C1OC(CO)C(O2)C1O (centres undefined),> 100 µM (inactive),> 100 µM (inactive),> 100 µM (inactive),> 100 µM (inactive),> 100 µM (inactive),> 100 µM (inactive),> 100 µM (inactive),> 100 µM (inactive),> 100 µM (inactive),> 100 µM (inactive),> 100 µM (inactive),> 100 µM (inactive),> 100 µM (inactive),> 100 µM (inactive),> 100 µM (inactive),> 100 µM (inactive),> 100 µM (inactive),,,
CCc1c(Cc2[nH]c(Cc3[nH]c(C=O)c(C)c3CC)c(CC)c2CC)[nH]c(C=O)c1C,> 100 µM (inactive),> 100 µM (inactive),66.7 µM (inactive),> 100 µM (inactive),> 100 µM (inactive),> 100 µM (inactive),> 100 µM (inactive),> 100 µM (inactive),,> 100 µM (inactive),> 100 µM (inactive),> 100 µM (inactive),> 100 µM (inactive),> 100 µM (inactive),> 100 µM (inactive),,> 100 µM (inactive),,,
COC(=O)Cc1cc(=O)oc2c1C(=O)CCC2,> 100 µM (inactive),> 100 µM (inactive),> 100 µM (inactive),> 100 µM (inactive),> 100 µM (inactive),> 100 µM (inactive),> 100 µM (inactive),> 100 µM (inactive),> 100 µM (inactive),> 100 µM (inactive),> 100 µM (inactive),> 100 µM (inactive),> 100 µM (inactive),> 100 µM (inactive),> 100 µM (inactive),> 100 µM (inactive),59.2 µM (inactive),,,
O=C(c1c(F)c(F)c(F)c(F)c1F)n1c(=S)n(C(=O)c2c(F)c(F)c(F)c(F)c2F)c2ccccc21,> 100 µM (inactive),,12.3 µM (inactive),,> 100 µM (inactive),> 100 µM (inactive),35.7 µM (inactive),,,,44.4 µM (inactive),59.2 µM (inactive),> 100 µM (inactive),46.5 µM (inactive),> 100 µM (inactive),> 100 µM (inactive),> 100 µM (inactive),69.8 µM (inactive),> 100 µM (inactive),> 100 µM (inactive)
Nc1cc(O)nc(SC2=NC(N)CC(O)C2)n1 (centres undefined),> 100 µM (inactive),> 100 µM (inactive),> 100 µM (inactive),> 100 µM (inactive),,> 100 µM (inactive),> 100 µM (inactive),> 100 µM (inactive),> 100 µM (inactive),> 100 µM (inactive),> 100 µM (inactive),> 100 µM (inactive),> 100 µM (inactive),42.5 µM (inactive),> 100 µM (inactive),> 100 µM (inactive),> 100 µM (inactive),,,
CC(=O)C(=[N+]=[N-])C(=O)OCCOC(=O)C(=[N+]=[N-])C(C)=O,> 1 µM (active),,> 1 µM (active),> 1 µM (active),> 1 µM (active),> 1 µM (active),> 1 µM (active),> 1 µM (active),> 1 µM (active),,> 1 µM (active),> 1 µM (active),> 1 µM (active),,> 1 µM (active),> 1 µM (active),> 1 µM (active),> 1 µM (active),> 1 µM (active),> 1 µM (active)
COC1OC(C)C(O)CC1OS(=O)(=O)c1ccc(C)cc1 (centres undefined),> 100 µM (inactive),> 100 µM (inactive),> 100 µM (inactive),> 100 µM (inactive),> 100 µM (inactive),> 100 µM (inactive),> 100 µM (inactive),> 100 µM (inactive),> 100 µM (inactive),> 100 µM (inactive),> 100 µM (inactive),> 100 µM (inactive),> 100 µM (inactive),> 100 µM (inactive),> 100 µM (inactive),> 100 µM (inactive),> 100 µM (inactive),,,
CC(C)(C)c1cc(C(P(=O)(O)O)P(=O)(O)O)cc(C(C)(C)C)c1O,> 100 µM (inactive),> 100 µM (inactive),> 100 µM (inactive),> 100 µM (inactive),> 100 µM (inactive),> 100 µM (inactive),> 100 µM (inactive),> 100 µM (inactive),> 100 µM (inactive),> 100 µM (inactive),> 100 µM (inactive),> 100 µM (inactive),,> 100 µM (inactive),> 100 µM (inactive),> 100 µM (inactive),> 100 µM (inactive),,,
COc1cc(O)c2c(c1)C(=O)C1=C(C2=O)C(O)C[C@@](C)(O)C1 (some centres undefined),0.684 µM (active),1.87 µM (inactive),2.39 µM (inactive),3.38 µM (inactive),0.445 µM (active),0.475 µM (active),0.424 µM (active),5.82 µM (inactive),1.53 µM (inactive),0.71 µM (active),1.86 µM (inactive),1.5 µM (inactive),1.29 µM (inactive),0.441 µM (active),2.49 µM (inactive),0.335 µM (active),2.67 µM (inactive),,,
Clc1ccc(OCc2nnc3sc(SSc4nn5c(COc6ccc(Cl)cc6)nnc5s4)nn23)cc1,> 100 µM (inactive),,,66.5 µM (inactive),> 100 µM (inactive),> 100 µM (inactive),> 100 µM (inactive),> 100 µM (inactive),> 100 µM (inactive),63.1 µM (inactive),44.8 µM (inactive),> 100 µM (inactive),> 100 µM (inactive),> 100 µM (inactive),> 100 µM (inactive),> 100 µM (inactive),52 µM (inactive),,> 100 µM (inactive),
C[C@]12CC[C@H](O)C[C@H]1CC[C@@H]1[C@@H]2CC[C@]2(C)[C@@H](C3=CC(=O)OC3)CC[C@]12O [DIGITOXIGENIN],< 0.0125 µM (active),0.0357 µM (active),0.0297 µM (active),0.0873 µM (active),0.0251 µM (active),0.209 µM (active),0.0547 µM (active),1.27 µM (inactive),0.0338 µM (active),< 0.01 µM (active),0.0757 µM (active),0.569 µM (active),0.0349 µM (active),0.118 µM (active),0.199 µM (active),0.303 µM (active),0.117 µM (active),,0.774 µM (active),0.168 µM (active)
